Laboratory results as given in BigSolDB 2.1.

C[C@H]1[C@H](C)CC[C@]2(C(=O)O[C@@H]3O[C@H](CO[C@@H]4O[C@H](CO)[C@@H](O[C@@H]5O[C@@H](C)[C@H](O)[C@@H](O)[C@H]5O)[C@H](O)[C@H]4O)[C@@H](O)[C@H](O)[C@H]3O)CC[C@]3(C)C(=CC[C@@H]4[C@@]5(C)C[C@@H](O)[C@H](O)[C@@](C)(CO)[C@@H]5CC[C@]43C)[C@H]12
solubility (mole fraction)
Details	in ethanol	in methanol	in n-butanol	in n-propanol	in water
278.15 K	–	0.000902	–	–	–
283.15 K	–	0.000904	–	–	–
288.15 K	–	0.000973	–	–	–
293.15 K	–	0.00103	–	–	–
298.15 K	0.00014	0.00113	2.44e-05	5.2e-05	1.9e-06
303.15 K	0.000142	0.00122	2.93e-05	6.06e-05	2.1e-06
308.15 K	0.000146	0.00139	3.45e-05	6.78e-05	2.5e-06
313.15 K	0.000152	0.0016	4.22e-05	8.06e-05	3.1e-06
318.15 K	0.000165	0.00182	5.1e-05	9.61e-05	4.2e-06
323.15 K	0.000176	0.00216	6.36e-05	0.000119	5.4e-06
328.15 K	0.000195	0.00253	8.03e-05	0.000144	7.1e-06
333.15 K	0.000217	–	0.000101	0.000181	1.02e-05
338.15 K	–	–	0.000132	0.00023	–
343.15 K	–	–	0.000175	0.000304	–
